pIC50: −log10 of the molar value.
tested on: PC3 cells; assay: NAMPT Cell Proliferation Assay; assay type: cell-based; conditions: Homo sapiens, PC-3, 120 h, 5 days incubation, cell viability by Cell Titer Glo
Method in brief: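 Seeded at 500 cells/well in RPMI with 10% heat-inactivated FBS and left to attach overnight at 37° C, 5% CO2. Compounds were added as 10-fold dilutions […] for 5 days, then viability was read by CellTiter-Glo. IC50s came from sigmoidal fits of percent inhibition.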

Row | SMILES | pIC50
1 | C=CCC(=O)N1CCC(c2ccc(NC(=O)C3CN(c4cccnn4)C3)cc2)CC1 [Example 330, N-{4-[1-(but-3-enoyl)piperidin-4-yl]phenyl}-1-(pyridazin-3-yl)azetidine-3-carboxamide] | 8.86
2 | O=C(Nc1ccc(O[C@@H]2CCN(C(=O)C(F)(F)c3ccccc3)C2)cc1)C1CN(c2ccnnc2)C1 [Example 480, N-[4-({(3R)-1-[difluoro(phenyl)acetyl]pyrrolidin-3-yl}oxy)phenyl]-1-(pyridazin-4-yl)azetidine-3-carboxamide] | 8.37
3 | O=C(Nc1ccc(OC2CCN(C(=O)CC3C[C@@H]4CC[C@H]3C4)CC2)cc1)C1CN(c2cccnc2)C1 (stereo partly drawn) [Example 36, N-[4-({1-[(1S,4R)-bicyclo[2.2.1]hept-2-ylacetyl]piperidin-4-yl}oxy)phenyl]-1-(pyridin-3-yl)azetidine-3-carboxamide] | 8.02
4 | CCC(C)CC(=O)N1CCC(c2ccc(NC(=O)C3CN(c4cccnn4)C3)cc2)CC1 (centres unmarked) [Example 323, N-{4-[1-(3-methylpentanoyl)piperidin-4-yl]phenyl}-1-(pyridazin-3-yl)azetidine-3-carboxamide] | 8.55
5 | O=C(Nc1ccc(OC2CN(C(=O)c3ccc(F)cc3)C2)cc1)C1CN(c2ccnnc2)C1 [Example 199, N-(4-{[1-(4-fluorobenzoyl)azetidin-3-yl]oxy}phenyl)-1-(pyridazin-4-yl)azetidine-3-carboxamide] | 7.01
6 | O=C(Nc1ccc(C2CCN(C(=O)c3cccc(F)c3)CC2)cc1F)C1CN(c2cccnn2)C1 [Example 830, N-{2-fluoro-4-[1-(3-fluorobenzoyl)piperidin-4-yl]phenyl}-1-(pyridazin-3-yl)azetidine-3-carboxamide] | 8.10
7 | Cc1ncccc1N1CC(C(=O)Nc2ccc(C3CCN(C(=O)CC(C)(C)C)CC3)cc2)C1 [Example 192, N-{4-[1-(3,3-dimethylbutanoyl)piperidin-4-yl]phenyl}-1-(2-methylpyridin-3-yl)azetidine-3-carboxamide] | 7.16
8 | O=C(Nc1ccc(O[C@@H]2CCN(C(=O)Cc3ccc(OC(F)(F)F)cc3)C2)cc1)C1CN(c2ccnnc2)C1 [Example 447, 1-(pyridazin-4-yl)-N-(4-{[(3R)-1-{[4-(trifluoromethoxy)phenyl]acetyl}pyrrolidin-3-yl]oxy}phenyl)azetidine-3-carboxamide] | 6.04
9 | CC(C)CC(=O)N1CCC(c2ccc(NC(=O)C3CN(c4cccnn4)C3)cc2)CC1 [Example 320, N-{4-[1-(3-methylbutanoyl)piperidin-4-yl]phenyl}-1-(pyridazin-3-yl)azetidine-3-carboxamide] | 8.63
10 | O=C(Nc1ccc(C2CCN(C(=O)CCS(=O)(=O)c3ccccc3)CC2)cc1)[C@H]1CCN(c2cccnn2)C1 [Example 647, (3S)-N-(4-{1-[3-(phenylsulfonyl)propanoyl]piperidin-4-yl}phenyl)-1-(pyridazin-3-yl)pyrrolidine-3-carboxamide] | 8.24
11 | O=C(Nc1ccc(C2CC3CCC(C2)N3C(=O)CCC(F)(F)F)cc1)C1CN(c2cccnn2)C1 (centres unmarked) [Example 841, 1-(pyridazin-3-yl)-N-{4-[8-(4,4,4-trifluorobutanoyl)-8-azabicyclo[3.2.1]oct-3-yl]phenyl}azetidine-3-carboxamide] | 8.45
12 | CO[C@H](C(=O)N1CCC(c2ccc(NC(=O)[C@H]3CCN(c4cccnn4)C3)cc2)CC1)c1ccccc1 [Example 633, (3S)-N-(4-{1-[(2S)-2-methoxy-2-phenylacetyl]piperidin-4-yl}phenyl)-1-(pyridazin-3-yl)pyrrolidine-3-carboxamide] | 8.05
13 | O=C(Nc1ccc(O[C@@H]2CCN(C(=O)C(F)(F)c3ccccc3)C2)cc1)C1CN(c2cccnn2)C1 [Example 522, N-[4-({(3R)-1-[difluoro(phenyl)acetyl]pyrrolidin-3-yl}oxy)phenyl]-1-(pyridazin-3-yl)azetidine-3-carboxamide] | 9.11
14 | O=C(Nc1ccc(S(=O)(=O)C2CCN(C(=O)c3cccc(F)c3)CC2)cc1)C1CN(c2cccnn2)C1 [Example 583, N-(4-{[1-(3-fluorobenzoyl)piperidin-4-yl]sulfonyl}phenyl)-1-(pyridazin-3-yl)azetidine-3-carboxamide] | 7.06
15 | CCCCn1nc(C(C)(C)C)cc1-c1ccc(NC(=O)C2CN(c3cccnn3)C2)cc1 [Example 866, N-[4-(1-butyl-3-tert-butyl-1H-pyrazol-5-yl)phenyl]-1-(pyridazin-3-yl)azetidine-3-carboxamide] | 8.10
16 | Cc1ccc(C(=O)N2CCC(Oc3ccc(NC(=O)C4CN(c5cccnc5)C4)cc3)CC2)s1 [Example 62, N-[4-({1-[(5-methylthiophen-2-yl)carbonyl]piperidin-4-yl}oxy)phenyl]-1-(pyridin-3-yl)azetidine-3-carboxamide] | 7.85
17 | CCCC(=O)N1CCC(Oc2ccc(NC(=O)C3CN(c4cccnc4)C3)cc2)CC1 [Example 43, N-{4-[(1-butanoylpiperidin-4-yl)oxy]phenyl}-1-(pyridin-3-yl)azetidine-3-carboxamide] | 8.16
18 | O=C(Nc1ccc(OC2CCN(C(=O)c3cccs3)CC2)cc1)C1CN(c2ccnnc2)C1 [Example 303, 1-(pyridazin-4-yl)-N-(4-{[1-(thiophen-2-ylcarbonyl)piperidin-4-yl]oxy}phenyl)azetidine-3-carboxamide] | 7.23

Row | SMILES | pIC50
19 | CCC(CC)CN1CCC(Oc2ccc(NC(=O)C3CN(c4cccnc4)C3)cc2)CC1 [Example 78, N-(4-{[1-(2-ethylbutyl)piperidin-4-yl]oxy}phenyl)-1-(pyridin-3-yl)azetidine-3-carboxamide] | 7.67
20 | O=C(Nc1ccc(OC2CCN(C(=O)c3ccsc3)CC2)cc1)C1CN(c2cccnc2)C1 [Example 58, 1-(pyridin-3-yl)-N-(4-{[1-(thiophen-3-ylcarbonyl)piperidin-4-yl]oxy}phenyl)azetidine-3-carboxamide] | 8.19
21 | COCCn1nc(CC(C)C)cc1-c1ccc(NC(=O)C2CN(c3cccnn3)C2)cc1 [Example 846, N-{4-[1-(2-methoxyethyl)-3-(2-methylpropyl)-1H-pyrazol-5-yl]phenyl}-1-(pyridazin-3-yl)azetidine-3-carboxamide] | 8.14
22 | CC1CC1C(=O)N1CCC(Oc2ccc(NC(=O)[C@H]3CCN(c4cccnn4)C3)cc2)CC1 (stereo partly drawn) [Example 802, (3S)-N-[4-({1-[(2-methylcyclopropyl)carbonyl]piperidin-4-yl}oxy)phenyl]-1-(pyridazin-3-yl)pyrrolidine-3-carboxamide] | 7.58
23 | O=C(Nc1ccc(C2CCN(C(=O)c3ccc(F)cc3)CC2)cc1)C1CN(c2cccnn2)C1 [Example 349, N-{4-[1-(4-fluorobenzoyl)piperidin-4-yl]phenyl}-1-(pyridazin-3-yl)azetidine-3-carboxamide] | 8.14
24 | Cc1ncccc1N1CC(C(=O)Nc2ccc(C3CCN(C(=O)c4ccccc4Cl)CC3)cc2)C1 [Example 151, N-{4-[1-(2-chlorobenzoyl)piperidin-4-yl]phenyl}-1-(2-methylpyridin-3-yl)azetidine-3-carboxamide] | 7.22
25 | O=C(Nc1ccc(C2CCN(C(=O)C3CC3)CC2)cc1)[C@H]1CCN(c2cccnn2)C1 [Example 662, (3S)-N-{4-[1-(cyclopropylcarbonyl)piperidin-4-yl]phenyl}-1-(pyridazin-3-yl)pyrrolidine-3-carboxamide] | 7.80
26 | O=C(Nc1ccc(OC2CCN(C(=O)CC3CCCC3)CC2)cc1)C1CN(c2cccnc2)C1 [Example 69, N-(4-{[1-(cyclopentylacetyl)piperidin-4-yl]oxy}phenyl)-1-(pyridin-3-yl)azetidine-3-carboxamide] | 8.37
27 | CCC(=O)N1CCC(c2ccc(NC(=O)C3CN(c4cccnc4C)C3)cc2)CC1 [Example 181, 1-(2-methylpyridin-3-yl)-N-[4-(1-propanoylpiperidin-4-yl)phenyl]azetidine-3-carboxamide] | 6.62
28 | CC(C)CC(=O)N1CCC(c2ccc(NC(=O)[C@H]3CCN(c4cccnn4)C3)cc2)CC1 [Example 736, (3S)-N-{4-[1-(3-methylbutanoyl)piperidin-4-yl]phenyl}-1-(pyridazin-3-yl)pyrrolidine-3-carboxamide] | 8.09
29 | O=C(Nc1ccc(C2CCN(C(=O)c3cccc(O)c3)CC2)cc1)C1CN(c2cccnn2)C1 [Example 343, N-{4-[1-(3-hydroxybenzoyl)piperidin-4-yl]phenyl}-1-(pyridazin-3-yl)azetidine-3-carboxamide] | 8.19
30 | CC(C)C(=O)N1CCC(c2ccc(C(=O)N[C@H]3CCN(c4cccnn4)C3)s2)CC1 [Example 760, 5-[1-(2-methylpropanoyl)piperidin-4-yl]-N-[(3S)-1-(pyridazin-3-yl)pyrrolidin-3-yl]thiophene-2-carboxamide] | 6.60
31 | CCCC(=O)N1CCC(c2ccc(NC(=O)[C@H]3CCN(c4cccnn4)C3)cc2)CC1 [Example 681, (3S)-N-[4-(1-butanoylpiperidin-4-yl)phenyl]-1-(pyridazin-3-yl)pyrrolidine-3-carboxamide] | 8.04
32 | O=C(Nc1ccc(OC2CCN(C(=O)C3CCOC3)CC2)cc1)[C@H]1CCN(c2cccnc2)C1 (stereo partly drawn) [Example 15, (3S)-1-(pyridin-3-yl)-N-(4-{[1-(tetrahydrofuran-3-ylcarbonyl)piperidin-4-yl]oxy}phenyl)pyrrolidine-3-carboxamide] | 7.46
33 | O=C(Nc1ccc(OC2CCN(C(=O)C(F)(F)c3ccccc3)CC2)cc1)C1CN(c2ccnnc2)C1 [Example 269, N-[4-({1-[difluoro(phenyl)acetyl]piperidin-4-yl}oxy)phenyl]-1-(pyridazin-4-yl)azetidine-3-carboxamide] | 7.22
34 | O=C(Nc1ccc(OC2CCN(C(=O)Cc3ccc(F)cc3F)CC2)cc1)C1CN(c2ccnnc2)C1 [Example 277, N-[4-({1-[(2,4-difluorophenyl)acetyl]piperidin-4-yl}oxy)phenyl]-1-(pyridazin-4-yl)azetidine-3-carboxamide] | 7.14
35 | O=C(Nc1ccc(S(=O)(=O)C2CCN(C(=O)C3CCCC3)CC2)cc1)C1CN(c2ccnnc2)C1 [Example 617, N-(4-{[1-(cyclopentylcarbonyl)piperidin-4-yl]sulfonyl}phenyl)-1-(pyridazin-4-yl)azetidine-3-carboxamide] | 5.73

Source: patent US20130303509A1, “NAMPT INHIBITORS” (AbbVie Inc., priority 2012, published 2013)
